From US11110146B2, “Methods for reducing platelet aggregation and treating cardiovascular disease and other medical disorders” (Paradise Health, Inc., priority 2014, dated 2021)
Where “and” joins values, the source holds several entries; their conditions need not be identical. Identical values can stand only once.

Assays:
Format in all cases: cell-based, human
[1] = test system: platelets in platelet-rich plasma (PRP); assay: Light transmission aggregometry, platelet aggregation induced by arachidonic acid
Protocol: (§1) All the experiments were conducted using healthy adult volunteers not taking aspirin or other medications that affect platelet aggregation. Whole blood was collected into 0.105 M buffered sodium citrate as the anticoagulant. Platelet-rich plasma (PRP) was prepared by centrifugation of whole blood at 135×g for 20 min. The residual blood sample was then centrifuged at 2,500×g for 15 min to obtain platelet-poor plasma (PPP). Platelet counts in the PRP were determined using a Horiba Micros 60 cell counter. For LTA experiments, platelet counts in PRP were adjusted to 250,000/μL using autologous donor PPP as the diluent.
The stock vial (16 mM) of AA was diluted by adding 0.5 mL of deionized water to obtain a 1.6 mM AA solution. The AA solution was maintained on ice and was used within 6 hr of preparation.
The samples were incubated in a water bath at 37° C. for 30 min before performing the LTA experiments.
The adjusted PRP was incubated with indicated concentration of GoPE (Table 7) for 30 min at 37° C.
(§2) After incubation of PRP with test articles, 450 μL of PRP were transferred into aggregation cuvettes for LTA testing. All aggregation experiments were performed on a LTA-Chronolog 700 aggregometer with Aggrolink 8 software. The instrument was set for an optical mode of data acquisition and the stir bar speed was set to 1.200 rpm. Autologous PPP was used in the reference channel of the aggregometer and baselines were set prior to addition of agonists. Fifty (50) μL of working agonist solutions (AA, ADP, and Collagen) were added to the cuvettes and tracings recorded for a minimum of 6 minutes. The maximal aggregation (MA) response was calculated using Aggrolink software for reporting the data.

[2] = test system: platelets in platelet-rich plasma (PRP); assay: Light transmission aggregometry, platelet aggregation induced by adenosine diphosphate; settings: for inhibition of platelet aggregation in the presence of 5 or 20 μM ADP: at any of the concentrations tested
Protocol: as §1
Stock solutions of ADP (200 μM) were prepared in saline and stored frozen at −80° C. A vial of stock ADP was thawed and further diluted in saline to obtain a 50 μM ADP solution. Fifty (50) μL of ADP solution (200 and 50 μM) were added to 450 μL of adjusted PRP to perform aggregation tests with 20 μM ADP and 5 μM ADP.
(§3) The samples were incubated in a water bath at 37° C. for 30 min before performing the LTA experiments. […]
as §2

[3] = test system: platelets in platelet-rich plasma (PRP); assay: Light transmission aggregometry, platelet aggregation induced by collagen
Protocol: as §1, with “Whole” for “All the experiments were conducted using healthy adult volunteers not taking aspirin or other medications that affect platelet aggregation. Whole”
Twenty five (25) jμL of the stock solution of collagen (1 mg/ml) was added to 475 μL of collagen dilution buffer to obtain a 50 μg/ml working solution. Fifty (50) μL of collagen solution was added to 450 μL of adjusted PRP to perform aggregation tests. The final concentration of collagen used for aggregation testing was 5 μg/ml.
as §3, §2

[4] = 6-paradol 1 μM, individual donor
[5] = 6-paradol 10 μM, individual donor
[6] = 6-paradol 100 μM, individual donor
[7] = 6-paradol 1000 μM, individual donor
[8] = substance at 10 μM and higher (6-paradol: in most experiments)
[9] = substance at a concentration of 1 μM
[10] = Aspirin 10 μM, individual donor
[11] = Aspirin 100 μM, individual donor
[12] = Aspirin 1000 μM, individual donor

CCCCCCCC(=O)CCc1ccc(O)c(OC)c1 [6-paradol]
Maximal Percent Aggregation Response to 1.6 mM Arachidonic Acid ([1]; 6-paradol 1 μM, Mean): 82% | Maximal Percent Aggregation Response to 1.6 mM Arachidonic Acid [1, 4]: 72% and 77% and 96% and 65% and 98% | Maximal Percent Aggregation Response to 1.6 mM Arachidonic Acid ([1]; 6-paradol 10 μM, Mean): 51% | Maximal Percent Aggregation Response to 1.6 mM Arachidonic Acid [1, 5]: 0% (2×) and 99% and 71% and 87% | Maximal Percent Aggregation Response to 1.6 mM Arachidonic Acid ([1]; 6-paradol 100 μM, Mean): 2% | Maximal Percent Aggregation Response to 1.6 mM Arachidonic Acid [1, 6]: 0% (4×) and 9% | Maximal Percent Aggregation Response to 1.6 mM Arachidonic Acid ([1]; 6-paradol 1000 μM, Mean): 1% | Maximal Percent Aggregation Response to 1.6 mM Arachidonic Acid [1, 7]: 0% (4×) and 3% | inhibition of AA-mediated platelet aggregation [1, 8]: Near complete inhibition | inhibition of AA-mediated platelet aggregation [1, 9]: did not significantly inhibit | Maximal Percent Aggregation Response to 5 μM Adenosine Diphosphate ([2]; 6-paradol 1 μM, Mean): 77% | Maximal Percent Aggregation Response to 20 μM Adenosine Diphosphate ([2]; 6-paradol 1 μM, Mean): 83% | Maximal Percent Aggregation Response to 5 μM Adenosine Diphosphate [2, 4]: 83% and 81% and 92% and 50% | Maximal Percent Aggregation Response to 20 μM Adenosine Diphosphate [2, 4]: 70% and 85% and 88% and 74% and 99% | Maximal Percent Aggregation Response to 5 μM Adenosine Diphosphate ([2]; 6-paradol 10 μM, Mean): 74% | Maximal Percent Aggregation Response to 20 μM Adenosine Diphosphate ([2]; 6-paradol 10 μM, Mean): 86% | Maximal Percent Aggregation Response to 5 μM Adenosine Diphosphate [2, 5]: 77% and 78% and 96% and 46% | Maximal Percent Aggregation Response to 20 μM Adenosine Diphosphate [2, 5]: 81% and 82% and 100% and 84% and 85% | Maximal Percent Aggregation Response to 5 μM Adenosine Diphosphate ([2]; 6-paradol 100 μM, Mean): 63% | Maximal Percent Aggregation Response to 20 μM Adenosine Diphosphate ([2]; 6-paradol 100 μM, Mean): 79% | Maximal Percent Aggregation Response to 5 μM Adenosine Diphosphate [2, 6]: 57% and 67% and 81% and 45% | Maximal Percent Aggregation Response to 20 μM Adenosine Diphosphate [2, 6]: 63% and 73% and 95% and 76% and 90% | Maximal Percent Aggregation Response to 5 μM Adenosine Diphosphate ([2]; 6-paradol 1000 μM, Mean): 50% | Maximal Percent Aggregation Response to 20 μM Adenosine Diphosphate ([2]; 6-paradol 1000 μM, Mean): 66% | Maximal Percent Aggregation Response to 5 μM Adenosine Diphosphate [2, 7]: 55% and 53% and 59% and 33% | Maximal Percent Aggregation Response to 20 μM Adenosine Diphosphate [2, 7]: 53% and 67% (3×) and 78% | inhibition of platelet aggregation in the presence of 5 or 20 μM ADP [2]: did not significantly inhibit | Maximal Percent Aggregation Response to 5 μg/ml Collagen ([3]; 6-paradol 1 μM, Mean): 89% | Maximal Percent Aggregation Response to 5 μg/ml Collagen [3, 4]: 81% and 100% and 77% and 97% and 90% | Maximal Percent Aggregation Response to 5 μg/ml Collagen ([3]; 6-paradol 10 μM, Mean): 95% | Maximal Percent Aggregation Response to 5 μg/ml Collagen [3, 5]: 82% and 100% (2×) and 97% and 98% | Maximal Percent Aggregation Response to 5 μg/ml Collagen ([3]; 6-paradol 100 μM, Mean): 85% | Maximal Percent Aggregation Response to 5 μg/ml Collagen [3, 6]: 82% and 100% and 88% and 89% and 64% | inhibition of collagen-mediated platelet aggregation response ([3]; 6-paradol 1000 μM): substantially inhibited | Maximal Percent Aggregation Response to 5 μg/ml Collagen ([3]; 6-paradol 1000 μM, Mean): 41% | Maximal Percent Aggregation Response to 5 μg/ml Collagen [3, 7]: 23% and 60% and 36% and 74% and 10% | inhibition of collagen-mediated platelet aggregation ([3]; 6-paradol concentrations of 100 μM or less): did not significantly inhibit

CC(=O)Oc1ccccc1C(=O)O [Aspirin, aspirin]
Maximal Percent Aggregation Response to 1.6 mM Arachidonic Acid ([1]; Aspirin 1 μM, Mean): 69% | Maximal Percent Aggregation Response to 1.6 mM Arachidonic Acid ([1]; Aspirin 1 μM, individual donor): 75% and 0% and 100% and 73% and 95% | Maximal Percent Aggregation Response to 1.6 mM Arachidonic Acid ([1]; Aspirin 10 μM, Mean): 2% | Maximal Percent Aggregation Response to 1.6 mM Arachidonic Acid [1, 10]: 0% (3×) and 1% and 7% | Maximal Percent Aggregation Response to 1.6 mM Arachidonic Acid ([1]; Aspirin 100 μM, Mean): 1% | Maximal Percent Aggregation Response to 1.6 mM Arachidonic Acid [1, 11]: 0% (4×) and 5% | Maximal Percent Aggregation Response to 1.6 mM Arachidonic Acid ([1]; Aspirin 1000 μM, Mean): 2% | Maximal Percent Aggregation Response to 1.6 mM Arachidonic Acid [1, 12]: 0% (3×) and 8% | inhibition of AA-mediated platelet aggregation [1, 8]: near complete inhibition | inhibition of AA-mediated platelet aggregation [1, 9]: did not significantly inhibit | Maximal Percent Aggregation Response to 5 μM Adenosine Diphosphate ([2]; Aspirin 1 μM, Mean): 82% | Maximal Percent Aggregation Response to 20 μM Adenosine Diphosphate ([2]; Aspirin 1 μM, Mean): 90% | Maximal Percent Aggregation Response to 5 μM Adenosine Diphosphate ([2]; Aspirin 1 μM, individual donor): 78% and 83% and 92% and 73% | Maximal Percent Aggregation Response to 20 μM Adenosine Diphosphate ([2]; Aspirin 1 μM, individual donor): 91% and 87% and 100% and 81% and 90% | Maximal Percent Aggregation Response to 5 μM Adenosine Diphosphate ([2]; Aspirin 10 μM, Mean): 70% | Maximal Percent Aggregation Response to 20 μM Adenosine Diphosphate ([2]; Aspirin 10 μM, Mean): 80% | Maximal Percent Aggregation Response to 5 μM Adenosine Diphosphate [2, 10]: 82% and 63% and 84% and 52% | Maximal Percent Aggregation Response to 20 μM Adenosine Diphosphate [2, 10]: 78% (2×) and 92% and 68% and 84% | Maximal Percent Aggregation Response to 5 μM Adenosine Diphosphate ([2]; Aspirin 100 μM, Mean): 71% | Maximal Percent Aggregation Response to 20 μM Adenosine Diphosphate ([2]; Aspirin 100 μM, Mean): 86% | Maximal Percent Aggregation Response to 5 μM Adenosine Diphosphate [2, 11]: 63% and 94% and 75% and 53% | Maximal Percent Aggregation Response to 20 μM Adenosine Diphosphate [2, 11]: 63% and 87% (2×) and 95% and 97% | Maximal Percent Aggregation Response to 5 μM Adenosine Diphosphate ([2]; Aspirin 1000 μM, Mean): 74% | Maximal Percent Aggregation Response to 20 μM Adenosine Diphosphate ([2]; Aspirin 1000 μM, Mean): 80% | Maximal Percent Aggregation Response to 5 μM Adenosine Diphosphate [2, 12]: 71% and 90% and 86% and 50% | Maximal Percent Aggregation Response to 20 μM Adenosine Diphosphate [2, 12]: 72% and 84% and 80% and 78% and 88% | inhibition of platelet aggregation in the presence of 5 or 20 μM ADP [2]: did not significantly inhibit | Maximal Percent Aggregation Response to 5 μg/mL Collagen ([3]; Aspirin 1 μM, Mean): 94% | Maximal Percent Aggregation Response to 5 μg/mL Collagen ([3]; Aspirin 1 μM, individual donor): 100% (2×) and 82% and 92% and 97% | Maximal Percent Aggregation Response to 5 μg/mL Collagen ([3]; Aspirin 10 μM, Mean): 91% | Maximal Percent Aggregation Response to 5 μg/mL Collagen [3, 10]: 86% and 100% (2×) and 80% and 87% | Maximal Percent Aggregation Response to 5 μg/mL Collagen ([3]; Aspirin 100 μM, Mean): 65% | Maximal Percent Aggregation Response to 5 μg/mL Collagen [3, 11]: 52% and 92% and 61% and 90% and 28% | Maximal Percent Aggregation Response to 5 μg/mL Collagen ([3]; Aspirin 1000 μM, Mean): 56% | Maximal Percent Aggregation Response to 5 μg/mL Collagen [3, 12]: 39% and 75% and 52% and 83% and 32% | inhibition at 1000 µM ([3]; Homo sapiens, Platelet, read-out: inhibition of collagen-mediated platelet aggregation response relative to DMSO control): ~37%
